Results on four compounds are retold here after US20070122395A1, “Genetic and pharmacological regulation of antidepressant-sensitive biogenic amine transporters through PKG/p38 map kinase” (Vanderbilt University, priority 2005, published 2007).

Values joined by “and” are separate entries in the source; they are usually repeats but may differ in a detail not shown here. Identical values can stand only once.

One data set concerns hSERT Gly56Ala. The experiment in a line: in situ SERT phosphorylation in [32P]-prelabeled transfected HeLa cells. Format: cell-based, human.
In data set [1] the target is T1, native SERT in RN46A cells (Rattus norvegicus, UniProt P31652).
T1 construct: derived from rat E13 raphenucleus, that expresses native SERT; endogenous in cells; host or cells: RN46A cells
T1 sequence (P31652 whole entry): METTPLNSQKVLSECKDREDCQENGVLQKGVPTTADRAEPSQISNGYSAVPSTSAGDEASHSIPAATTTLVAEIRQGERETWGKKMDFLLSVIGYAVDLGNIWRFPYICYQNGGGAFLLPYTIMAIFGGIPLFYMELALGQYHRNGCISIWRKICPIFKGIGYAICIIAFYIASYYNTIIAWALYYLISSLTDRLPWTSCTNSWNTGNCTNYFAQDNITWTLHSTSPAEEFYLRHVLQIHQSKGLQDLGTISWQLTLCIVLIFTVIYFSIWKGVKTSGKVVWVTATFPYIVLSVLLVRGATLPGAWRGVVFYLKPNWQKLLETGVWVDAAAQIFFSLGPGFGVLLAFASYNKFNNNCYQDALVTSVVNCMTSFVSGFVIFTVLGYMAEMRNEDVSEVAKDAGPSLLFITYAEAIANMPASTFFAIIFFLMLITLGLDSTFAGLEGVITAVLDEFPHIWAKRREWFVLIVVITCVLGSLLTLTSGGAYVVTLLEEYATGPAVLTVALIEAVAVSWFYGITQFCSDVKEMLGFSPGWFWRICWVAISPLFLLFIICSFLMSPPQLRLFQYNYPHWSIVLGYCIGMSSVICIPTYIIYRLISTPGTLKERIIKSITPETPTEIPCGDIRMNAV
The experiment in a line: [3H]5-HT transport assay in RN46A cells. Type of data set: cell-based. The note with it: RN46A, 10 min treatment.

For data set [2], the system named is hSERT variants Thr4Ala, Gly56Ala, Glu215Lys, Lys605Asn, Pro621Ser. Put plainly: 5-HT transport regulation in transfected HeLa cells, non-responsive variants. Type of data set: cell-based, human. On the procedure: (§1) Transfection and Transport Studies. HeLa cells, maintained at 37° C. in a 5% CO2 humidified incubator, were grown in complete medium (Dulbecco's Modified Eagle's Medium (DMEM, Invitrogen), 10% fetal bovine serum, 2 mM L-glutamine, 100 units/ml penicillin, and 100 μg/ml streptomycin).
(§2) Transport, Binding, Biotinylation and Phosphorylation Studies. […] To establish levels and biosynthetic progression of hSERT protein produced from mutant cDNAs, HeLa cells were plated in 6-well dishes at 500,000 cells per well and transfected 12 h later. Twenty four hours after transfection, whole cell detergent extracts were blotted for hSERT (mAb Technologies, Inc., 1:1000) using enhanced chemiluminescence (ECL, Amersham) detection.

Data set [3] relates to hSERT. The experiment in a line: in situ SERT phosphorylation in [32P]-prelabeled transfected HeLa cells. Type of data set: cell-based, human. The following applies: 8BrcGMP 100 μM, 60 min.
Data set [4] concerns the target T2, hSERT (Homo sapiens, UniProt P31645).
T2 construct: The full-length cDNA encoding hSERT in the mammalian expression vector pcDNA3.1; expressed in transfected cells; host or cells: HeLa
Put plainly: [125I]RTI-55 binding to intact transfected HeLa cells (surface and total SERT). Type of data set: cell-based.

Data set [5] deals with five hSERT variants that failed to elicit uptake increases. Put plainly: [125I]RTI-55 surface binding to intact transfected HeLa cells, non-responsive variants. Format: cell-based, human. The note with it: five non-responsive variants.
Data set [6] has as its target T2, hSERT. The experiment in a line: [3H]5-HT transport (SERT uptake) assay in transfected HeLa cells. Format: cell-based. The procedure:
as §1, §2

Data set [7] deals with hSERT variants Leu255Met, Ser293Phe, Pro339Leu, Leu362Met, Ile425Val. Put plainly: 5-HT transport regulation in transfected HeLa cells, responsive variants. Format: cell-based, human. The procedure:
as §1, §2

The subject of data set [8] is Ala56 homozygous lymphocyte lines. The experiment in a line: 5-HT uptake in genotyped lymphocyte lines. Type of data set: cell-based, human. From the text: (§3) Genotyping and Lymphocyte Studies. Lymphocyte lines were derived from autistic pedigrees recruited by Susan E. Folstein (Johns Hopkins Univ), from the Autism Genetics Resource Exchange (AGRE) collection (www.agre.org/), and from the NIMH Human Genetics Initiative Repository (www.nimhgenetics.org/) at Rutgers University. DNA from lymphoblastoid cell lines was genotyped via TaqMan-based allelic discrimination, using an Applied Biosystems (Foster City, Calif.) Assay-by-Design and independently confirmed by PCR and direct sequence analysis. […] Lymphocyte were pelleted at 1500 rpm, 5 min and washed with KRH assay buffer. A total of 1×10^6 cells in triplicate were pre-warmed (37° C.) in a shaking water bath (10 min) in 12×75 polypropylene tubes in KRH buffer containing 100 μM pargyline and 100 μM ascorbic acid+/−modifiers.

The subject of data set [9] is lymphocytes homozygous for the Gly variant (hSERT Gly56). The experiment in a line: 5-HT uptake in genotyped lymphocyte lines. Type of data set: cell-based, human. The note with it: Gly56 homozygous lymphocytes.
Description: as §3

For data set [10], the system named is Gly56Ala heterozygous lymphocytes. Put plainly: 5-HT uptake in genotyped lymphocyte lines. Format: cell-based, human. The following applies: Gly56Ala heterozygous cells.
Description: as §3

In data set [11] the test system is hSERT variants that responded with uptake increases. Put plainly: [125I]RTI-55 surface binding to intact transfected HeLa cells, responsive variants. Format: cell-based, human.
Another data set concerns p38 MAPK. Type of data set: cell-based, rat. On the procedure: Assays of p38 MAPK Activation. […] Medium was removed by aspiration, and cells were washed once with KRH buffer and then incubated in triplicate at 37° C. in KRH buffer with or without p38 MAPK activators for 5-10 min. Assay buffer was removed, and cells were immediately fixed with fresh 4% formaldehyde (Sigma) in PBS for 20 min at room temperature and washed four times with 1×PBS containing 0.1% Triton X-100 (Sigma) (5 min per wash) prior to 1 h of blocking with Odyssey blocking buffer (Li-Cor Biosciences, Lincoln, Nebr.). RBL-2H3 cells were subsequently probed with dual phosphorylated (Thr(P) and Tyr(P)) p38 MAPK polyclonal antibody (Cell Signaling; 1:400) in Odyssey blocking buffer with gentle mixing for 2 h at room temperature. Cells were then washed four times with 1×PBS containing 0.1% Tween 20 (Sigma) for 5 min. Bound antibody was detected with fluorescence-labeled secondary antibody-Alexa Fluor® 680 (avoiding exposure to light; 1:200 in Odyssey Blocking Buffer, Molecular Probes, Inc., Eugene, Oreg.) for 1 h. After four washes with 1×PBS, 0.1% Tween 20, the plate was scanned, and the captured image of the signal was processed and quantified with the Odyssey™ Infrared Imaging System (Li-Cor Biosciences). For UV radiation to activate p38 MAPK, plates seeded with cells were placed in a UV source (UV Stratalinker 1800, Stratagene, La Jolla, Calif.) that was preset to deliver 4×10^4 μJ/cm^2 at room temperature.

The next data set has as its system human NET. Put plainly: monoamine uptake assay in transfected CHO cells. The note with it: CHO cells, 10-min anisomycin. Type of data set: cell-based. The procedure: Cell Culture and Transfection. […] CHO cells (ATCC, Manassas, Va.) were maintained at 37° C. in Dulbecco's MEM containing 10% fetal bovine serum, 1% L-Glu, 100 IU/ml penicillin, and 100 μg/ml streptomycin. For comparison of the response of monoamine transporters to p38 MAPK activation, CHO cells were transfected with cDNAs for hSERT, hDAT, or hNET (100 ng/well for a 24-well plate). Transfections of CHO cells were performed using TransIT-LT1 Transfection Reagent (Mirus, Madison, Wis.) according to the manufacturer's protocol (0.3 μl/well). hSERT, hDAT, or hNET cDNAs were preincubated with the reagent at ambient temperature for 30 min before being added to plated CHO cells. Cells were cultured for 24 h after transfection. The transfection mixture was removed just prior to assay.
CHO cells were plated at 20,000 cells/well 16-24 h before transfection, and the uptake assay was performed 24 h following the transfection. […] Medium was removed by aspiration, and cells were washed once with Krebs-Ringer HEPES (KRH) buffer containing 130 mM NaCl, 1.3 mM KCl, 2.2 mM CaCl2, 1.2 mM MgSO4, 1.2 mM KH2PO4, 1.8 g/liter glucose, 10 mM HEPES, pH 7.4. […] Cells were solubilized with 0.5 ml of Microscint 20 (PerkinElmer Life Sciences), and tritium-labeled monoamine accumulation was quantitated using a TopCount plate scintillation counter (PerkinElmer Life Sciences).

A further data set relates to hDAT. Put plainly: monoamine uptake assay in transfected CHO cells. Type of data set: cell-based, human. The note with it: 10-min anisomycin. The procedure:
(§4) Cell Culture and Transfection. […] Cells were cultured for 24 h after transfection. The transfection mixture was removed just prior to assay.

The test system of another data set is mSERT. Put plainly: monoamine uptake assay in transfected CHO cells. Type of data set: cell-based, mouse. The note with it: 10-min anisomycin. The procedure:
as §4

Another data set has as its system hSERT variants. The experiment in a line: 5-HT transport regulation by phorbol ester in transfected HeLa cells, all variants. Type of data set: cell-based, human. The following applies: each hSERT variant; slightly greater for Thr4Ala, Lys605Asn, Pro621Ser. The procedure:
as §1, §2

The next data set deals with T3, NCCc1c[nH]c2ccc(O)cc12.
T3 construct: The full-length cDNA encoding hSERT in the mammalian expression vector pcDNA3.1; expressed in transfected cells; host or cells: HeLa
The experiment in a line: cells, lysate or membranes. Format: cell-based, human. The note with it: other: saturation kinetics of 5-HT transport, hSERT; pH 7.4; 37.0 °C.

T2 sequence (P31645 whole entry): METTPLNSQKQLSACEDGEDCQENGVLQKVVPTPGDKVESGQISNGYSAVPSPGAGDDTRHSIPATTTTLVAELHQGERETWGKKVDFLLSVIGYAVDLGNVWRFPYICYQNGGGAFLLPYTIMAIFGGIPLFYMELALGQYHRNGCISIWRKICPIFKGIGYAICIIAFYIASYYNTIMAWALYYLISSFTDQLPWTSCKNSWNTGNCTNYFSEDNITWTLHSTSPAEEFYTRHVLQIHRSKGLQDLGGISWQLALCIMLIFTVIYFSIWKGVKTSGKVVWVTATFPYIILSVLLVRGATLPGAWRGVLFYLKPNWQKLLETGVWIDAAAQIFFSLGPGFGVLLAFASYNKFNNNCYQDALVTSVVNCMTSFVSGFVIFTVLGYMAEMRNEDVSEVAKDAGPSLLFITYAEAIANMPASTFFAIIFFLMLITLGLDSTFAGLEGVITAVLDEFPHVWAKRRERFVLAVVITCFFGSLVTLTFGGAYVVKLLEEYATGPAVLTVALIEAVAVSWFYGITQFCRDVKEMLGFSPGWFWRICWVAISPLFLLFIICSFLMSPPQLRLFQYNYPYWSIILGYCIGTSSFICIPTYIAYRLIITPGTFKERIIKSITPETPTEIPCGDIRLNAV

Turning to `Nc1nc2c(nc(Br)n2[C@@H]2O[C@@H]3COP(=O)(O)O[C@H]3[C@H]2O)c(=O)[nH]1` [8BrcGMP, 8-bromo-cGMP], in the data set with hSERT Gly56Ala, the “SERT phosphorylation response to 8BrcGMP” value is “could not be further phosphorylated”. In addition, the “stimulation of 5-HT transport” value was “increase in 5-HT transport” in data set [1] and “robust 8BrcGMP stimulation of 5-HT transport” in [9]. Also, the “8BrcGMP effect on SERT activity” value was “completely insensitive” in data set [2] and “dose-dependent, H8-sensitive stimulation of SERT activity comparable to hSERT” in [7]. For the same compound, in the data set on hSERT [3], the “elevation of basal SERT phosphorylation” value was around 80%. In addition, the “[125I]RTI-55 surface binding after 8BrcGMP” value at hSERT [4] (100 μM 8BrcGMP, 5-HT 100 μM as displacer) is “Parallel changes in [^125I]RTI-55 surface binding”; in data set [5], “reduction in [^125I]RTI-55 surface binding”; in data set [11], “elevated [^125I]RTI-55 surface binding”. Further, the “total [125I]RTI-55 binding” value on hSERT [4] (paroxetine as displacer, data not shown) is given as “no effects on total binding”. The “stimulation of 5-HT transport activity (peak increase)” value on hSERT [6] is given as 50-70%. Moreover, the “sensitivity of 5-HT uptake to activator” value is recorded as “lacked sensitivity” in data set [8] and “intermediate sensitivity” in data set [10].
As to `COc1ccc(C[C@H]2NC[C@H](O)[C@H]2OC(C)=O)cc1` [anisomycin], in the data set with p38 MAPK (0.5 and 1.0 μm, 5 min), the “increase in phosphorylated p38 MAPK” value was 2-3 fold. Also, in the data set with p38 MAPK (5 min treatment), the “level of p38 MAPK phosphorylation stimulation” value was “comparable to stimulation achieved with 8-bromo-cGMP”. The “total p38 MAPK levels” value with p38 MAPK (data not shown) is “No changes”. For the same compound, in the data set on human NET, the “anisomycin-modulated NE uptake (NET activity)” value was “stimulated to a comparable degree as hSERT”. Besides, the “anisomycin-modulated DA uptake” value in the data set with hDAT is on record as “small, but significant SB203580-sensitive inhibition of DA uptake”. Moreover, in the data set on mSERT, the “anisomycin-modulated 5-HT uptake” value was “SB203580-sensitive elevation in 5-HT uptake”.
`CCCCCCCCCCCCCC(=O)O[C@@H]1[C@@H](C)[C@@]2(O)[C@@H](C=C(CO)C[C@]3(O)C(=O)C(C)=C[C@@H]23)[C@@H]2C(C)(C)[C@]12OC(C)=O` [β-PMA]: on hSERT [6], the “downregulation of 5-HT transport activity” value is around 40%. In addition, the “downregulation of 5-HT transport following β-PMA, relative to hSERT” value with hSERT variants is recorded as “equal to or slightly greater”.
For the compound hSERT (Homo sapiens), the Km with NCCc1c[nH]c2ccc(O)cc12 was 1.00+/−0.47 μM and 1.00+0.17 μM.
